Test results: ChEMBL document CHEMBL5108002, “Design, synthesis, and biological evaluation of novel 7-substituted 10,11-methylenedioxy-camptothecin derivatives against drug-resistant small-cell lung cancer in vitro and in vivo” (Eur J Med Chem, 2022)
Active and inactive are the calls of the source. The calls are words filed in the database; no cut-off is given here.

How the values were obtained:
SW-620 = assay: Antiproliferative activity against human SW-620 cells assessed as inhibition of cell growth incubated for 72 hrs by SRB assay; format: functional, cell-based; conditions: SW-620, 72 h
2008 = assay: Antiproliferative activity against human 2008 cells assessed as inhibition of cell growth incubated for 72 hrs by SRB assay; format: functional, cell-based; conditions: Homo sapiens, 2008, 72 h
[1] = Resistance index, ratio of IC50 for antiproliferative activity against Irinotecan-resistant human NCI-H446 cells to IC50 for antiproliferative activity against human NCI-H446 cells; format: functional
NCI-H446 [2] = assay: Antiproliferative activity against Irinotecan-resistant human NCI-H446 cells assessed as inhibition of cell growth incubated for 72 hrs by SRB assay; format: functional, cell-based; conditions: NCI-H446, 72 h
[3] = Resistance index, ratio of IC50 for antiproliferative activity against etoposide/cisplatin combination-resistant human NCI-H446 cells to IC50 for antiproliferative activity against human NCI-H446 cells; format: functional
H69AR [4] = assay: Induction of apoptosis in human NCI-H69AR cells assessed as late apoptotic cells at 1 nM incubated for 24 hrs by AnnexinV-FITC/PI staining based flow cytometry analysis (reference value: 2.99 %); format: functional
NCI-H446 [5] = assay: Induction of apoptosis in human NCI-H446 cells assessed as dead cells at 0.1 nM incubated for 24 hrs by AnnexinV-FITC/PI staining based flow cytometry analysis (reference value: 0.33 %); format: functional
Bel-7402 = assay: Antiproliferative activity against human Bel-7402 cells assessed as inhibition of cell growth incubated for 72 hrs by SRB assay; format: functional, cell-based; conditions: Bel-7402, 72 h
NCI-H446 [6] = assay: Induction of apoptosis in human NCI-H446 cells assessed as late apoptotic cells at 0.1 nM incubated for 24 hrs by AnnexinV-FITC/PI staining based flow cytometry analysis (reference value: 1.55 %); format: functional
NCI-H446 [7] = assay: Induction of apoptosis in human NCI-H446 cells assessed as increase in cleaved-caspase 3 protein expression at 0.1 to 100 nM measured after 24 hrs by Western blot analysis; format: functional, cell-based; conditions: dose 0.1-100 nM
NCI-H446 [8] = assay: Induction of apoptosis in human NCI-H446 cells assessed as dead cells at 1 nM incubated for 24 hrs by AnnexinV-FITC/PI staining based flow cytometry analysis (reference value: 0.33 %); format: functional
NCI-H446 [9] = assay: Induction of apoptosis in human NCI-H446 cells assessed as early apoptotic cells at 10 nM incubated for 24 hrs by AnnexinV-FITC/PI staining based flow cytometry analysis (reference value: 2.43 %); format: functional
SH-SY5Y = assay: Antiproliferative activity against human SH-SY5Y cells assessed as inhibition of cell growth incubated for 72 hrs by SRB assay; format: functional, cell-based
NCI-H446 [10] = assay: Induction of apoptosis in human NCI-H446 cells assessed as late apoptotic cells at 1 nM incubated for 24 hrs by AnnexinV-FITC/PI staining based flow cytometry analysis (reference value: 1.55 %); format: functional
H69AR [11] = assay: Induction of apoptosis in human NCI-H69AR cells assessed as dead cells at 1 nM incubated for 24 hrs by AnnexinV-FITC/PI staining based flow cytometry analysis (reference value: 1.92 %); format: functional
H69AR [12] = assay: Induction of apoptosis in human NCI-H69AR cells assessed as dead cells at 100 nM incubated for 24 hrs by AnnexinV-FITC/PI staining based flow cytometry analysis (reference value: 1.92 %); format: functional
H69AR [13] = assay: Induction of apoptosis in human NCI-H69AR cells assessed as dead cells at 10 nM incubated for 24 hrs by AnnexinV-FITC/PI staining based flow cytometry analysis (reference value: 1.92 %); format: functional
H69AR [14] = assay: Induction of apoptosis in human NCI-H69AR cells assessed as early apoptotic cells at 100 nM incubated for 24 hrs by AnnexinV-FITC/PI staining based flow cytometry analysis (reference value: 0.35 %); format: functional
H69AR [15] = assay: Induction of apoptosis in human NCI-H69AR cells assessed as early apoptotic cells at 10 nM incubated for 24 hrs by AnnexinV-FITC/PI staining based flow cytometry analysis (reference value: 0.35 %); format: functional
NCI-H446 [16] = assay: Antiproliferative activity against etoposide/cisplatin combination-resistant human NCI-H446 cells assessed as inhibition of cell growth incubated for 72 hrs by SRB assay; format: functional, cell-based; conditions: NCI-H446, 72 h
NCI-H446 [17] = assay: Induction of apoptosis in human NCI-H446 cells assessed as increase in cleaved-caspase 9 protein expression at 0.1 to 100 nM measured after 24 hrs by Western blot analysis; format: functional, cell-based; conditions: dose 0.1-100 nM
NCI-H446 [18] = assay: Antitumor activity against human NCI-H446 cells xenografted in BALB/c nude mouse assessed as tumor growth inhibition at 3 mg/kg, IG administered once a week for 28 days by electronic caliper method relative to control; format: functional; conditions: NCI-H446, po, 672 h, time 28 day, read-out: TGI
H69AR [19] = assay: Induction of apoptosis in human NCI-H69AR cells assessed as early apoptotic cells at 1 nM incubated for 24 hrs by AnnexinV-FITC/PI staining based flow cytometry analysis (reference value: 0.35 %); format: functional
NCI-H446 [20] = assay: Induction of apoptosis in human NCI-H446 cells assessed as early apoptotic cells at 1 nM incubated for 24 hrs by AnnexinV-FITC/PI staining based flow cytometry analysis (reference value: 2.43 %); format: functional
U-87 MG = assay: Antiproliferative activity against human U87 cells assessed as inhibition of cell growth incubated for 72 hrs by SRB assay; format: functional, cell-based, U-87MG ATCC
H69AR [21] = assay: Antiproliferative activity against human NCI-H69AR cells assessed as inhibition of cell growth incubated for 72 hrs by SRB assay; format: functional, cell-based
HepG2 = assay: Antiproliferative activity against human HepG2 cells assessed as inhibition of cell growth incubated for 72 hrs by SRB assay; format: functional, cell-based; conditions: HepG2, 72 h
NCI-H69 = assay: Antiproliferative activity against human NCI-H69 cells assessed as inhibition of cell growth incubated for 72 hrs by SRB assay; format: functional, cell-based; conditions: NCI-H69, 72 h
NCI-H446 [22] = assay: Induction of apoptosis in human NCI-H446 cells assessed as increase in cleaved-PARP protein expression at 0.1 to 100 nM measured after 24 hrs by Western blot analysis; format: functional, cell-based; conditions: dose 0.1-100 nM
H69AR [23] = assay: Induction of apoptosis in human NCI-H69AR cells assessed as late apoptotic cells at 10 nM incubated for 24 hrs by AnnexinV-FITC/PI staining based flow cytometry analysis (reference value: 2.99 %); format: functional
NCI-H446 [24] = assay: Induction of apoptosis in human NCI-H446 cells assessed as early apoptotic cells at 0.1 nM incubated for 24 hrs by AnnexinV-FITC/PI staining based flow cytometry analysis (reference value: 2.43 %); format: functional
H69AR [25] = assay: Induction of apoptosis in human NCI-H69AR cells assessed as late apoptotic cells at 100 nM incubated for 24 hrs by AnnexinV-FITC/PI staining based flow cytometry analysis (reference value: 2.99 %); format: functional
MCF7 = assay: Antiproliferative activity against human MCF7 cells assessed as inhibition of cell growth incubated for 72 hrs by SRB assay; format: functional, cell-based; conditions: MCF7, 72 h
NCI-H446 [26] = assay: Induction of apoptosis in human NCI-H446 cells assessed as dead cells at 10 nM incubated for 24 hrs by AnnexinV-FITC/PI staining based flow cytometry analysis (reference value: 0.33 %); format: functional
NCI-H446 [27] = assay: Induction of apoptosis in human NCI-H446 cells assessed as late apoptotic cells at 10 nM incubated for 24 hrs by AnnexinV-FITC/PI staining based flow cytometry analysis (reference value: 1.55 %); format: functional
NCI-H446 [28] = assay: Antitumor activity against Irinotecan-resistant human NCI-H446 cells xenografted in BALB/c nude mouse assessed as tumor weight at 100 mg/kg, IG administered once a week and measured 3 times a week for 35 days; format: functional; conditions: time 35 day

## CC[C@@]1(O)C(=O)OCc2c1cc1n(c2=O)Cc2c-1nc1cc3c(cc1c2-c1ccc(CO)cc1)OCO3
SW-620
  IC50: 0.28 nM
2008
  IC50: 7.67 nM

## CC[C@@]1(O)C(=O)OCc2c1cc1n(c2=O)Cc2c-1nc1cc3c(cc1c2-c1ccncc1)OCO3
SW-620
  IC50: 2.67 nM
2008
  IC50: 93.5 nM

## CC[C@@]1(O)C(=O)OCc2c1cc1n(c2=O)Cc2c-1nc1cc3c(cc1c2-c1ccco1)OCO3
SW-620
  IC50: 102 nM
2008
  IC50: 0.16 nM

## COc1cccc2c1C(=O)c1c(O)c3c(c(O)c1C2=O)C[C@@](O)(C(=O)CO)C[C@@H]3O[C@H]1C[C@H](N)[C@H](O)[C@H](C)O1 [DOXORUBICIN]
[1]
  Ratio IC50: 14.64
NCI-H446 [2]
  IC50: 5.71 nM
[3]
  Ratio IC50: 46.56

## CC[C@@]1(O)C(=O)OCc2c1cc1n(c2=O)Cc2c-1nc1cc3c(cc1c2-c1cnn(C)c1)OCO3
SW-620
  IC50: 0.84 nM
2008
  IC50: 22.4 nM

## CC[C@@]1(O)C(=O)OCc2c1cc1n(c2=O)Cc2c-1nc1cc3c(cc1c2-c1cccnc1)OCO3
SW-620
  IC50: 0.17 nM
2008
  IC50: 11.6 nM

## COc1cc([C@@H]2c3cc4c(cc3[C@@H](O[C@@H]3O[C@@H]5CO[C@@H](C)O[C@H]5[C@H](O)[C@H]3O)[C@H]3COC(=O)[C@H]23)OCO4)cc(OC)c1O [ETOPOSIDE]
[1]
  Ratio IC50: 11.48
NCI-H446 [2]
  IC50: 192 nM
[3]
  Ratio IC50: 19.28

## CC[C@@]1(O)C(=O)OCc2c1cc1n(c2=O)Cc2cc3c(CN(C)C)c(O)ccc3nc2-1 [TOPOTECAN]
SW-620
  IC50: > 500 nM
2008
  IC50: > 500 nM

## CC[C@@]1(O)C(=O)OCc2c1cc1n(c2=O)Cc2cc3cc4c(cc3nc2-1)OCO4
H69AR [4]
  Activity: 5.73%
NCI-H446 [5]
  Activity: 0.34%
Bel-7402
  IC50: 21.8 nM
NCI-H446 [6]
  Activity: 0.83%
NCI-H446 [7]
  Activity: Active
NCI-H446 [8]
  Activity: 0.97%
[1]
  Ratio IC50: 2.09
SW-620
  IC50: 0.93 nM
NCI-H446 [9]
  Activity: 14.27%
NCI-H446 [2]
  IC50: 18.5 nM
SH-SY5Y
  IC50: 24.2 nM
NCI-H446 [10]
  Activity: 1.83%
H69AR [11]
  Activity: 1.72%
H69AR [12]
  Activity: 1.56%
H69AR [13]
  Activity: 2.87%
H69AR [14]
  Activity: 1.3%
[3]
  Ratio IC50: 0.78
H69AR [15]
  Activity: 0.43%
NCI-H446 [16]
  IC50: 6.61 nM
NCI-H446 [17]
  Activity: Active
NCI-H446 [18]
  inhibition in vivo at 3 mg/kg: 27.7%
H69AR [19]
  Activity: 0.58%
NCI-H446 [20]
  Activity: 9.64%
U-87 MG
  IC50: 109 nM
H69AR [21]
  IC50: 6.29 nM
HepG2
  IC50: 10.6 nM
2008
  IC50: 37.3 nM
NCI-H69
  IC50: 15.8 nM
NCI-H446 [22]
  Activity: Active
H69AR [23]
  Activity: 7.33%
NCI-H446 [24]
  Activity: 3.93%
H69AR [25]
  Activity: 32.78%
MCF7
  IC50: 63.3 nM
NCI-H446 [26]
  Activity: 0.37%
NCI-H446 [27]
  Activity: 2.82%

## CC[C@@]1(O)C(=O)OCc2c1cc1n(c2=O)Cc2c-1nc1cc3c(cc1c2-c1cccs1)OCO3
SW-620
  IC50: 0.29 nM
2008
  IC50: 4.03 nM

## CCc1c2c(nc3ccc(OC(=O)N4CCC(N5CCCCC5)CC4)cc13)-c1cc3c(c(=O)n1C2)COC(=O)[C@]3(O)CC [IRINOTECAN]
[1]
  Ratio IC50: 15
NCI-H446 [2]
  IC50: 0.15 nM
[3]
  Ratio IC50: 13
NCI-H446 [16]
  IC50: 0.13 nM
NCI-H446 [18]
  inhibition in vivo at 3 mg/kg: 26.8%
NCI-H446 [28]
  Activity: 2.28 g

## CC[C@@]1(O)C(=O)OCc2c1cc1n(c2=O)Cc2c-1nc1cc3c(cc1c2-c1cc(C(F)(F)F)cc(C(F)(F)F)c1)OCO3
SW-620
  IC50: 1.44 nM
2008
  IC50: 49.7 nM

## CC[C@@]1(O)C(=O)OCc2c1cc1n(c2=O)Cc2c-1nc1cc3c(cc1c2-c1ccsc1)OCO3
SW-620
  IC50: 0.36 nM
2008
  IC50: 39.2 nM
